Data: patent US8575197B2, “Pyrolinone derivative and pharmaceutical composition comprising the same” (Shionogi & Co., Ltd., priority 2008, dated 2013)

biological target: human P2X3 receptor (Homo sapiens (Human), UniProt P56373); assay: P2X3 receptor inhibition, ATP-evoked Fluo-3 calcium fluorescence (FDSS 3000); type: cell-based; settings: C6BU-1 cell transfected with human P2X3 receptor gene; ATP-evoked Fluo-3 fluorescence
Method in brief: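 C6BU-1 cells stably transfected with human P2X3, loaded with 4 μM Fluo-3-AM for 1 h at 37 °C in HEPES buffer pH 7.5 with probenecid. Compound added 5 min before 40 nM ATP solution; fluorescence followed 3 min. IC50 from ratio of peak post-ATP to baseline fluorescence.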

Sequence of human P2X3 receptor (P56373 whole entry): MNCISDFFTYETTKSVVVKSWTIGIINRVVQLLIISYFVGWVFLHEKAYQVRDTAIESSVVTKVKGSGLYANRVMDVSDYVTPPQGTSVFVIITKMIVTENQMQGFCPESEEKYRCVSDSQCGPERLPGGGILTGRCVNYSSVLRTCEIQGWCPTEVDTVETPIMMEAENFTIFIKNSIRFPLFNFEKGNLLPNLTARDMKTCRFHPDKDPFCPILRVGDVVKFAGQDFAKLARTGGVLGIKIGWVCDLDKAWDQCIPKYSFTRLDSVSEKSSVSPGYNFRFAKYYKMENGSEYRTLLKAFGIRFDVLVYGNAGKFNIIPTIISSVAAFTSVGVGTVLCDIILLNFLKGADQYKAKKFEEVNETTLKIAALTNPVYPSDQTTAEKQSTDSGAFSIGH

Row | Structure (SMILES) | IC50 [nM]
1 | COCCCOc1ncccc1C1C(C(=O)C(C)C)=C(O)C(=O)N1c1ccc(-c2csc(C)c2)cc1 (stereo not shown) [Compound I-571] | 60
2 | COC(=O)COc1ccccc1C1c2c(C(C)(C)C)n[nH]c2C(=O)N1c1ccc(-c2ccsc2)cc1 (stereo not shown) [II-020] | 8
3 | CSc1ccc(N2C(=O)C(O)=C(C(=O)C(C)C)C2c2ccccc2OCC#N)cc1 (stereo not shown) [Compound I-509] | 247
4 | CCOc1ccccc1C1C(C(=O)CC(C)C)=C(O)C(=O)N1c1ccc(-c2ccoc2)cc1 (stereo not shown) [Compound I-347] | 47
5 | COCc1ccccc1C1C(C(=O)C(C)C)=C(O)C(=O)N1c1ccc(-c2ccco2)cc1 (stereo not shown) [Compound I-354] | 57
6 | Cc1ccc(-c2ccc(N3C(=O)C(O)=C(C(=O)C(C)C)C3c3ccccc3N3CCOCC3)cc2)o1 (stereo not shown) [Compound I-486] | 4
7 | COCOc1ccccc1C1C(C(=O)CC(C)C)=C(O)C(=O)N1c1ccc(-c2csc(C)c2)cc1 (stereo not shown) [Compound I-372] | 35
8 | COc1ccc(F)cc1C1C(C(=O)C(C)(C)C)=C(O)C(=O)N1c1ccc(-c2ccon2)cc1 (stereo not shown) [Compound I-021] | 382
9 | COCc1ccccc1[C@@H]1C(C(=O)C(C)C)=C(O)C(=O)N1c1ccc(-c2ccc(C)s2)cc1 [Compound I-393] | 15
10 | CCN(C)C(=O)c1ncccc1C1C(C(=O)CC(C)C)=C(O)C(=O)N1c1ccc(-c2ccc(C)s2)cc1 (stereo not shown) [Compound I-575] | 252
11 | COCc1ccccc1C1C(C(=O)C(C)C)=C(O)C(=O)N1c1ccc(C2=CCCC2)cc1 (stereo not shown) [Compound I-527] | 39
12 | COCCOc1ccccc1C1c2c(C(C)(C)CO)n[nH]c2C(=O)N1c1ccc(-c2ccsc2)cc1 (stereo not shown) [II-130] | 4
13 | COCCCOc1ccccc1C1C(C(=O)C(C)C)=C(O)C(=O)N1c1ccc(-c2ccsc2)cc1 (stereo not shown) [Compound I-489] | 6
14 | COc1ccccc1C1c2c(C(C)(C)CO)n[nH]c2C(=O)N1c1ccc(-c2noc(C)n2)cc1 (stereo not shown) [II-137] | 148
15 | Cc1ccc(-c2ccc(N3C(=O)C(O)=C(C(=O)CC(C)C)C3c3cccnc3C(=O)NC(C)C)cc2)s1 (stereo not shown) [Compound I-578] | 386
16 | Cc1cc(-c2ccc(N3C(=O)c4[nH]nc(C(C)(C)C)c4C3c3ccccc3OCCO)cc2)on1 (stereo not shown) [II-015] | 87
17 | COc1ccccc1C1c2c(C(C)(C)CO)n[nH]c2C(=O)N1c1nc2ccccc2s1 (stereo not shown) [II-139] | 332
18 | COc1ccc(C(=O)C2=C(O)C(=O)N(c3ccc(-c4nc(C)no4)cc3)C2c2ccccc2OC)cc1 (stereo not shown) [Compound I-032] | 160
19 | CNC(=O)COc1ncccc1C1C(C(=O)C(C)C)=C(O)C(=O)N1c1ccc(-c2ccsc2)cc1 (stereo not shown) [Compound I-199] | 19
20 | Cc1nc(-c2ccc(N3C(=O)C(O)=C(C(=O)CC(C)C)C3c3ccccc3OCCO)cc2)no1 (stereo not shown) [Compound I-278] | 366
21 | CNC(=O)COc1ccccc1C1c2c(C(C)(C)C)n[nH]c2C(=O)N1c1ccc(-c2ccsc2)cc1 (stereo not shown) [II-167] | 5
22 | Cc1ccc(-c2ccc(N3C(=O)C(O)=C(C(=O)C(C)C)C3c3ccccc3CC(=O)N(C)C)cc2)o1 (stereo not shown) [Compound I-493] | 105
23 | COc1ccccc1C1c2c(C(C)(C)C)n[nH]c2C(=O)N1c1ccc(SC)cc1 (stereo not shown) [II-201] | 33
24 | COCCOc1ncccc1C1c2c(C(C)(C)C)n[nH]c2C(=O)N1c1ccc(-c2cccs2)cc1 (stereo not shown) [II-035] | 6
25 | COCCOc1ccccc1C1C(C(=O)C(C)C)=C(O)C(=O)N1c1ccc(-c2ccc(C)s2)cc1 (stereo not shown) [Compound I-263] | 8

Row | Structure (SMILES) | IC50 [nM]
26 | COCCOc1ccccc1C1C(C(=O)C(C)C)=C(O)C(=O)N1c1ccc(-c2ccsc2)cc1 (stereo not shown) [Compound I-161] | 7
27 | Cc1cc(-c2ccc(N3C(=O)C(O)=C(C(=O)C(C)C)C3c3ccccc3OCC3OCCO3)cc2)cs1 (stereo not shown) [Compound I-500] | 12
28 | CC(C)(C)C(=O)C1=C(O)C(=O)N(c2ccc(-c3ccsc3)cc2)C1c1ccccc1OCC#N (stereo not shown) [Compound I-180] | 5
29 | COc1ccccc1C1c2c(C(C)C)n[nH]c2CN1c1ccc(-c2ccsc2)cc1 (stereo not shown) [II-067] | 153
30 | CNC(=O)COc1ccccc1C1C(C(=O)C(C)C)=C(O)C(=O)N1c1ccc(-c2ccsc2)cc1 (stereo not shown) [Compound I-188] | 22
31 | COc1ccccc1C1c2c(C(C)(C)C)n[nH]c2C(=O)N1c1ccc(-c2ccco2)cc1 (stereo not shown) [II-203] | 28
32 | COc1ccccc1C1c2c(C(C)(C)C)n[nH]c2C(=O)N1c1ccc(-c2cccs2)cn1 (stereo not shown) [II-256] | 18
33 | COCc1ccccc1C1C(C(=O)CC(C)C)=C(O)C(=O)N1c1ccc(-c2ccsc2)cc1 (stereo not shown) [Compound I-252] | 10
34 | COCCN(C)C(=O)c1ccccc1C1C(C(=O)CC(C)C)=C(O)C(=O)N1c1ccc(-c2ccc(C)o2)cc1 (stereo not shown) [Compound I-496] | 55
35 | COc1ccccc1C1c2c(C(C)(C)c3ccccc3)n[nH]c2C(=O)N1c1ccc(-c2ccon2)cc1 (stereo not shown) [II-199] | 113
36 | COCCCOc1ccccc1C1C(C(=O)CC(C)C)=C(O)C(=O)N1c1ccc(-c2noc(C)n2)cc1 (stereo not shown) [Compound I-492] | 104
37 | COc1cc(F)ccc1C1c2c(C(C)(C)C)n[nH]c2C(=O)N1c1ccc(-c2ccon2)cc1 (stereo not shown) [II-059] | 46
38 | Cc1ccc(-c2ccc(N3C(=O)C(O)=C(C(=O)C(C)C)C3c3ccccc3CCC(=O)N(C)C)cc2)o1 (stereo not shown) [Compound I-537] | 83
39 | COCCOc1ccccc1C1C(C(=O)C(C)C)=C(O)C(=O)N1c1ccc(-c2csnn2)cc1 (stereo not shown) [Compound I-532] | 204
40 | CSc1ccc(N2C(=O)C(O)=C(C(=O)CC(C)C)C2c2ccccc2OC(C)C)cc1 (stereo not shown) [Compound I-436] | 42
41 | COc1ccccc1C1c2c(CO)n[nH]c2C(=O)N1c1ccc(-c2ccsc2)cc1 (stereo not shown) [II-182] | 60
42 | Cc1ccc(-c2ccc(N3C(=O)C(O)=C(C(=O)C(C)C)C3c3ccccc3OC(F)(F)F)cc2)s1 (stereo not shown) [Compound I-334] | 78
43 | COc1ncccc1C1C(C(=O)CC(C)C)=C(O)C(=O)N1c1ccc(-c2ccoc2)cc1 (stereo not shown) [Compound I-340] | 336
44 | COc1ccc(C2C(C(=O)C(C)C)=C(O)C(=O)N2c2ccc(-c3ccsc3)cc2)cc1 (stereo not shown) [Compound I-285] | 648
45 | Cc1ccc(-c2ccc(N3C(=O)C(O)=C(C(=O)C(C)C)C3c3ccccc3OCCO)cc2)s1 (stereo not shown) [Compound I-258] | 24
46 | COc1ccccc1C1C(C(=O)C(C)C)=C(O)C(=O)N1c1ccc(-c2ccsc2)c(F)c1 (stereo not shown) [Compound I-235] | 35
47 | C/N=C1/CC(C)(C)C(=O)OC2=C1C(c1ccccc1OC)N(c1ccc(-c3ccsc3)cc1)C2=O (stereo not shown) [Compound I-587] | 374
48 | COCCOc1cc(F)ccc1C1C(C(=O)C(C)C)=C(O)C(=O)N1c1ccc(-c2ccsc2)cc1 (stereo not shown) [Compound I-363] | 7
49 | Cc1cc(-c2ccc(N3C(=O)C(O)=C(C(=O)CC(C)C)C3c3ccccc3C(=O)N3CCOCC3)cc2)cs1 (stereo not shown) [Compound I-505] | 168
50 | COc1ccccc1C1c2c(C(C)C)n[nH]c2C(=O)N1c1ccc(-c2ccsc2)c(C(N)=O)c1 (stereo not shown) [II-242] | 152

Row | Structure (SMILES) | IC50 [nM]
51 | CC(C)(C)c1n[nH]c2c1C(c1ccccc1OCC(=O)O)N(c1ccc(-c3cccs3)cc1)C2=O (stereo not shown) [II-022] | 4
52 | COCCOc1ncccc1C1C(C(=O)C(C)(C)C)=C(O)C(=O)N1c1ccc(-c2cccs2)cc1 (stereo not shown) [Compound I-149] | 15
53 | COc1ccccc1C1C(C(=O)CC(C)C)=C(O)C(=O)N1c1ccc(-c2ccoc2)cc1 (stereo not shown) [Compound I-351] | 101
54 | COc1ccc2nc(N3C(=O)c4[nH]nc(C(C)(C)CO)c4C3c3ccccc3OC)sc2c1 (stereo not shown) [II-142] | 104
55 | CCOC(=O)C(C)(C)C(=O)C1=C(O)C(=O)N(c2ccc(-c3csc(C)c3)cc2)C1c1ccccc1OC (stereo not shown) [Compound I-470] | 972
56 | COCc1ccccc1C1C(C(=O)C(C)C)=C(O)C(=O)N1c1ccc(-c2ccccc2)s1 (stereo not shown) [Compound I-283] | 144
57 | COc1ccccc1[C@@H]1C(C(=O)C(C)C)=C(O)C(=O)N1c1ccc(-c2ccoc2)cc1 [Compound I-202] | 40
58 | COc1ccc(C(=O)C2=C(O)C(=O)N(c3ccc(-c4nnc(C)o4)cc3)C2c2ccccc2OC)cc1 (stereo not shown) [Compound I-033] | 53
59 | COc1ncccc1C1c2c(C(C)(C)C)n[nH]c2C(=O)N1c1ccc(-c2ccco2)cn1 (stereo not shown) [II-263] | 108
60 | COCCCOc1ccccc1C1C(C(=O)C(C)C)=C(O)C(=O)N1c1ccc(-c2noc(C)n2)cc1 (stereo not shown) [Compound I-491] | 155
61 | Cc1noc(-c2ccc(N3C(=O)c4[nH]nc(C(C)(C)C)c4C3c3ccccc3OCCO)cc2)n1 (stereo not shown) [II-016] | 158
62 | Cc1cc(-c2ccc(N3C(=O)C(O)=C(C(=O)C(C)C)C3c3ccccc3CC(=O)N3CCCC3)cc2)cs1 (stereo not shown) [Compound I-526] | 219
63 | COC(=O)COCc1ncccc1C1c2c(C(C)(C)C)n[nH]c2C(=O)N1c1ccc(-c2ccsc2)cc1 (stereo not shown) [II-128] | 216
64 | CC(C)(C)C(=O)C1=C(O)C(=O)N(c2ccc(-c3cccs3)cc2)C1c1cccnc1OCCO (stereo not shown) [Compound I-172] | 24
65 | CC(C)c1n[nH]c2c1C(c1ccccc1OCc1nnn[nH]1)N(c1ccc(-c3ccsc3)cc1)C2=O (stereo not shown) [II-175] | 3
66 | Cc1ccc(-c2ccc(N3C(=O)C(O)=C(C(=O)C(C)C)C3c3ccccc3CCC(N)=O)cc2)o1 (stereo not shown) [Compound I-536] | 32
67 | COc1ccccc1C1c2c(C(C)(C)C)n[nH]c2C(=O)N1c1ccc(-c2ncco2)cc1 (stereo not shown) [II-209] | 87
68 | CC(C)C(=O)C1=C(O)C(=O)N(c2ccc(-c3ccon3)cc2)C1c1ccccc1OCC1CCOCC1 (stereo not shown) [Compound I-590] | 28
69 | CC(C)(C)c1n[nH]c2c1C(c1ccccc1OCCO)N(c1ccc(-c3ccsc3)cc1)C2=O (stereo not shown) [II-104] | 3
70 | COc1ccccc1C1c2c(C(C)C)n[nH]c2CN1C(=O)Nc1ccc(-c2ccsc2)cc1 (stereo not shown) [II-189] | 897
71 | COc1ncccc1C1C(C(=O)CC(C)C)=C(O)C(=O)N1c1ccc(-c2ccsc2)cc1 (stereo not shown) [Compound I-291] | 130
72 | COc1ccccc1C1c2c(C(C)(C)C)n[nH]c2C(=O)N1c1ccc(-c2csc(C)c2)cc1 (stereo not shown) [II-274] | 19
73 | CC(C)C(=O)C1=C(O)C(=O)N(c2ccc(-c3ccon3)cc2)C1c1ccccc1OC(F)(F)F (stereo not shown) [Compound I-297] | 220
